Measured values taken from ChEMBL document CHEMBL1649145, “Interactions between triazoles and amphotericin B in treatment of disseminated murine infection by Fusarium oxysporum” (2009).
Converted amounts (≈) assume the structure as drawn. The source made the active and inactive calls. The rule behind the calls is not given here.

Tests used:
[1] = tested on: Fusarium oxysporum; test: Antimicrobial activity against Fusarium oxysporum FMR 10281 by microdilution method; format: functional
[2] = tested on: Fusarium oxysporum; test: Antimicrobial activity against Fusarium oxysporum FMR 10281 by microdilution method in presence of posaconazole; format: functional
[3] = tested on: Fusarium oxysporum; test: Antimicrobial activity against 1X 10^7 CFU Fusarium oxysporum FMR 10281 infected in immunosuppressed-OF1 mouse assessed as prolonged survival of mouse at 3 mg/kg, ip administered 1 day post infection measured 20 days post […] infection; format: functional, organism-based; design: dose 3 mg/kg
[4] = tested on: Fusarium oxysporum; test: Antimicrobial activity against Fusarium oxysporum FMR 5205 by microdilution method; format: functional
[5] = tested on: Fusarium oxysporum; test: Antimicrobial activity against Fusarium oxysporum FMR 10281 by microdilution method in presence of voriconazole; format: functional
[6] = tested on: Fusarium oxysporum; test: Antimicrobial activity against Fusarium oxysporum FMR 5205 by microdilution method in presence of posaconazole; format: functional
[7] = tested on: Fusarium oxysporum; test: Antimicrobial activity against Fusarium oxysporum FMR 5205 by microdilution method in presence of voriconazole; format: functional
[8] = tested on: Fusarium oxysporum; test: Antimicrobial activity against 1X 10^7 CFU Fusarium oxysporum FMR 10281 infected in immunosuppressed-OF1 mouse assessed as reduction in spleen fungal burden at 3 mg/kg, ip administered 1 day post infection measured on day 6 post dosing; format: functional, organism-based; design: dose 3 mg/kg
[9] = tested on: Fusarium oxysporum; test: Antimicrobial activity against 1X 10^7 CFU Fusarium oxysporum FMR 5205 infected in immunosuppressed-OF1 mouse assessed as reduction in kidney fungal burden at 60 mg/kg, po administered 1 day post infection measured on day 6 post dosing; format: functional, organism-based; design: dose 60 mg/kg
[10] = tested on: Fusarium oxysporum; test: Antimicrobial activity against 1X 10^7 CFU Fusarium oxysporum FMR 5205 infected in immunosuppressed-OF1 mouse assessed as reduction in spleen fungal burden at 3 mg/kg, ip administered 1 day post infection measured on day 6 post dosing; format: functional, organism-based; design: dose 3 mg/kg
[11] = tested on: Fusarium oxysporum; test: Antimicrobial activity against 1X 10^7 CFU Fusarium oxysporum FMR 10281 infected in immunosuppressed-OF1 mouse assessed as prolonged survival of mouse at 60 mg/kg, po administered 1 day post infection measured 20 days post […] infection; format: functional, organism-based; design: dose 60 mg/kg
[12] = tested on: Fusarium oxysporum; test: Antimicrobial activity against 1X 10^7 CFU Fusarium oxysporum FMR 10281 infected in immunosuppressed-OF1 mouse assessed as reduction in spleen fungal burden at 100 mg/kg, po administered 1 day post infection measured on day 6 post dosing; format: functional, organism-based; design: dose 100 mg/kg
[13] = tested on: Fusarium oxysporum; test: Antimicrobial activity against 1X 10^7 CFU Fusarium oxysporum FMR 5205 infected in immunosuppressed-OF1 mouse assessed as reduction in spleen fungal burden at 100 mg/kg, po administered 1 day post infection measured on day 6 post dosing; format: functional, organism-based; design: dose 100 mg/kg
[14] = tested on: Fusarium oxysporum; test: Antimicrobial activity against 1X 10^7 CFU Fusarium oxysporum FMR 10281 infected in immunosuppressed-OF1 mouse assessed as prolonged survival of mouse at 100 mg/kg, po administered 1 day post infection measured 20 days post […] infection; format: functional, organism-based; design: dose 100 mg/kg
[15] = tested on: Fusarium oxysporum; test: Antimicrobial activity against 1X 10^7 CFU Fusarium oxysporum FMR 5205 infected in immunosuppressed-OF1 mouse assessed as reduction in kidney fungal burden at 100 mg/kg, po administered 1 day post infection measured on day 6 post dosing; format: functional, organism-based; design: dose 100 mg/kg

C[C@@H]1[C@H](O)[C@@H](C)/C=C/C=C/C=C/C=C/C=C/C=C/C=C/[C@H](O[C@@H]2O[C@H](C)[C@@H](O)[C@H](N)[C@@H]2O)C[C@@H]2O[C@](O)(C[C@@H](O)C[C@@H](O)[C@H](O)CC[C@@H](O)C[C@@H](O)CC(=O)O[C@H]1C)C[C@H](O)[C@H]2C(=O)O [AMPHOTERICIN B]
MIC [1]: 4 µg/mL (≈ 4.33 µM) | MIC [2]: 4 µg/mL | Activity [3]: inactive | MIC [4]: 2 µg/mL (≈ 2.16 µM) | MIC [5]: 4 µg/mL | MIC [6]: 2 µg/mL | MIC [7]: 2 µg/mL

C[C@@H](c1ncncc1F)[C@](O)(Cn1cncn1)c1ccc(F)cc1F [VORICONAZOLE]
Activity [8]: Active | MIC [1]: 16 µg/mL (≈ 45.8 µM) | Activity [9]: Active | MIC [4]: 4 µg/mL (≈ 11.5 µM) | Activity [10]: Active | Activity [11]: inactive

CC[C@@H]([C@H](C)O)n1ncn(-c2ccc(N3CCN(c4ccc(OC[C@@H]5CO[C@@](Cn6cncn6)(c6ccc(F)cc6F)C5)cc4)CC3)cc2)c1=O [POSACONAZOLE]
Activity [12]: Active | MIC [1]: > 16 µg/mL | Activity [13]: Active | Activity [14]: Active | MIC [4]: 2 µg/mL (≈ 2.85 µM) | Activity [15]: Active
